This note sets out measurements from ChEMBL document CHEMBL1201862, “PubChem BioAssay data set” (2004).

Where “and” joins values, the source holds several entries; their conditions need not be identical. Equal entries are not always repeated.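 Cells were grown in 96-well plates and exposed to each compound for 48 hours at five concentrations; endpoints were interpolated linearly between bracketing concentrations, or set to the highest concentration if not reached. GI50 is the concentration that inhibits growth by half.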 Calls of active or inactive are those of the source. No stated cut-off is given here; in the data, active = GI50 up to about 1.1 µM and inactive = higher. Residues, ends and D or L forms follow the SMILES beside them. *: point of attachment. Boc = CC(C)(C)OC(=O)*; OBn = c1ccc(CO*)cc1 Where only a bound is given, the exact number is not on record here.

Holding throughout (test): inhibition of tumour cell growth, NCI panel, 48 h
In test [1] the test system is COLO 205.
Test [2] relates to MDA-MB-231.
Test [3] relates to MDA-N.
The subject of test [4] is HOP-62.
The subject of test [5] is UACC-257.
Test [6] relates to NCI-H226.
Test [7] has as its system SK-OV-3.
Test [8] concerns SK-MEL-28.
For test [9], the system named is ACHN.
The test system of test [10] is IGROV-1.
Test [11] relates to U-251.
Test [12] has as its system OVCAR-8.
Test [13] has as its system SK-MEL-5.
Test [14] concerns HCT-15.
In test [15] the test system is SNB-75.
Test [16] deals with NCI-H522.
For test [17], the system named is OVCAR-3.
The test system of test [18] is SF-539.
Test [19] concerns RXF 393.

For the compound `COc1ccc(C(CC(=O)c2ccccc2)C(=O)c2ccc3c(c2)OCO3)cc1` (stereo not given), the GI50 in [1], in [2], in test [3], in test [4], in [5] and in test [6] was > 100 µM (inactive) throughout. Also, the GI50 in [7], in [8], in test [9], in [10], in test [11] and in test [12] was > 100 µM (inactive) in each case. Also, the values for the GI50 in test [13], in test [14] and in [15] were > 100 µM (inactive), above 100 µM and > 100 µM (inactive), respectively.
Regarding `CC(C)C(NC(=O)CNC(=O)C1CCCN1C(=O)C(NC(=O)OC(C)(C)C)C(C)C)C(=O)NCC(=O)OCc1ccccc1` (stereo not given) (Boc-VPGVG-OBn; configuration not given here), the GI50 in test [16], in test [1], in test [2], in test [3], in test [4] and in test [5] was > 100 µM (inactive) each time. The GI50 in test [6] was > 100 µM (inactive); in test [7], > 100 µM (inactive); in [17], > 100 µM (inactive); in test [8] it was > 100 µM (inactive); in test [9], > 100 µM (inactive); in [10] it was > 100 µM (inactive) and 94.6 µM (inactive). Further, the GI50 in test [11] was > 100 µM (inactive); in test [18], > 100 µM (inactive); in test [12], > 100 µM (inactive); in test [13], 24.5 µM (inactive); in [14] it was above 100 µM; in test [19], > 100 µM (inactive).
Turning to `COC(=O)C1OC(O[C@H]2CC[C@]3(C)[C@H]4CC=C5[C@@H]6CC(C)(C)CC[C@]6(C(=O)OC6OCC(O)C(O)C6OC6OC(C)C(OC7OCC(O)C(O)C7O)C(O)C6O)[C@H](O)C[C@@]5(C)[C@]4(C)CC[C@H]3C2(C)C)C(O)C(O)C1O` (stereo not given in full), the GI50 in test [16] is 1.78 µM (inactive) and 2.63 µM (inactive); in test [1], 1.66 µM (inactive) and 1.83 µM (inactive); in test [2], 1.91 µM (inactive) and 2.36 µM (inactive); in test [3], 1.87 µM (inactive) and 3.43 µM (inactive); in test [4] it was 8.85 µM (inactive) and 6.27 µM (inactive); in test [5], 2.9 µM (inactive) and 5.79 µM (inactive). In addition, the GI50 in test [6] was 7.13 µM (inactive) and 3.94 µM (inactive); in [7], 11.4 µM (inactive) and 13.4 µM (inactive); in test [17], 11.8 µM (inactive) and 14.8 µM (inactive); in [8], 1.87 µM (inactive) and 2.13 µM (inactive); in test [9] it was 4.35 µM (inactive) and 4.5 µM (inactive); in [10], 15.8 µM (inactive) and 11.7 µM (inactive). For the same compound, the GI50 in test [11] was 5.55 µM (inactive) and 6.11 µM (inactive); in test [13], 6.61 µM (inactive) and 13.1 µM (inactive); in [14], 12.9 µM and 13.7 µM; in test [19], 11.3 µM (inactive) and 14.9 µM (inactive); in test [15], 4.81 µM (inactive) and 8.53 µM (inactive).
Regarding `Nc1ncnc2c1sc(=S)n2-c1ccccc1`, the GI50 in test [16], in test [1], in test [4], in test [5], in test [6] and in [7] was > 100 µM (inactive) in each case. Moreover, the GI50 in test [17], in [8], in test [9], in [10], in test [11] and in [18] was > 100 µM (inactive) throughout. Besides, the GI50 in test [12] is > 100 µM (inactive); in [13], > 100 µM (inactive); in test [14], 96.8 µM; in test [19], > 100 µM (inactive); in test [15], > 100 µM (inactive).
With `CC1=C(O)C(=O)C2=C(C1=O)[C@@H]([C@@H](C)C/C=C/C(C)(C)O)CC[C@@H]2C`, the GI50 in [16] is 21.3 µM (inactive); in test [1], > 100 µM (inactive); in [2], > 100 µM (inactive); in test [3], 44.8 µM (inactive); in test [4], > 100 µM (inactive); in test [5] it was 61.8 µM (inactive). Also, the GI50 in test [6] was 74.5 µM (inactive); in test [7], > 100 µM (inactive); in test [17] it was 25.5 µM (inactive); in [9], 31.4 µM (inactive); in test [10], 69.5 µM (inactive); in [11] it was 52.7 µM (inactive). For the same compound, the GI50 in test [18] was > 100 µM (inactive); in [12] it was 78.9 µM (inactive); in test [13], 35.2 µM (inactive); in [14] it was 31 µM.
Regarding `CCC(C)Cn1c(C)nc2c1C(=O)c1ccccc1C2=O` (stereo not given), the GI50 is 30 µM (inactive) in test [16]; 19.8 µM (inactive) in [1]; 23.8 µM (inactive) in [4]; 23.5 µM (inactive) in test [5]; > 100 µM (inactive) in test [6]; 54.3 µM (inactive) in [7]. Besides, the GI50 is 23.3 µM (inactive) in test [17]; 37.2 µM (inactive) in test [8]; 36.1 µM (inactive) in test [9]; 42.5 µM (inactive) in test [10]; 20.5 µM (inactive) in [11]; 17.7 µM (inactive) in test [18]. Moreover, the GI50 in test [12] is 32.9 µM (inactive); in test [13], 15 µM (inactive); in test [14], 17.5 µM; in test [19], 33.9 µM (inactive); in test [15], 28.6 µM (inactive).
In the case of `C=C(CCOC)CCC1CCCCC(=C)[C@H]1O` (stereo not given in full), the GI50 in [16], in test [1], in [2], in test [3], in test [4] and in [5] was > 100 µM (inactive) in each case. The GI50 in test [6], in test [7], in test [17], in [8], in test [9] and in [10] was > 100 µM (inactive) each time. Besides, the GI50 in test [11] was > 100 µM (inactive); in test [12] it was > 100 µM (inactive); in [13], > 100 µM (inactive); in test [14], above 100 µM; in [15], > 100 µM (inactive).
For the compound `Oc1ccc2c3c1OC1C(=NN=C4CCC5(O)C6Cc7ccc(O)c8c7C5(CCN6CC5CC5)C4O8)CCC4(O)C(C2)N(CC2CC2)CCC314` (stereo not given), the GI50 in [16] was 21.4 µM (inactive); in test [1], 19.4 µM (inactive); in test [4], 30.3 µM (inactive); in test [5], 20.4 µM (inactive); in test [6], > 100 µM (inactive); in [7], > 51.3 µM (inactive). For the same compound, the GI50 is 18.5 µM (inactive) in test [17]; 21.9 µM (inactive) in test [8]; > 100 µM (inactive) in test [9]; > 100 µM (inactive) in test [10]; 17.7 µM (inactive) in test [11]; 27.1 µM (inactive) in test [18]. The GI50 in test [12] was 28.5 µM (inactive); in test [13] it was 19 µM (inactive); in test [14], above 100 µM; in [19], 40 µM (inactive); in test [15], 41.6 µM (inactive).
Consider `CN1CCN(c2ccc3[nH]c(-c4ccc5[nH]c(-c6ccc(N(C)CCCl)cc6)nc5c4)nc3c2)CC1`, for which the GI50 is 0.0163 µM (active) in test [16]; 0.17 µM (active) in [1]; 9.64 µM (inactive) in [2]; 0.226 µM (active) in test [3]; 0.156 µM (active) in test [4]; 1.66 µM (inactive) in test [5]. The GI50 is 0.705 µM (active) in test [6]; 0.196 µM (active) in [7]; 0.32 µM (active) in test [8]; 0.942 µM (active) in test [9]; 0.0382 µM (active) in test [10]; 0.0429 µM (active) in test [11]. Moreover, the GI50 was 0.109 µM (active) in test [18]; 0.247 µM (active) in test [12]; 0.18 µM (active) in test [13]; 12.6 µM in [14]; 0.128 µM (active) in [19]; 0.152 µM (active) in test [15].
Turning to `CNc1ccc2c(c1)Cc1ccccc1-2`, the GI50 in test [16] was 21.9 µM (inactive); in test [1], 38.7 µM (inactive); in [2] it was 55.8 µM (inactive); in [4], 57.4 µM (inactive); in [5], 61.1 µM (inactive); in test [6], 78 µM (inactive). Besides, the GI50 in test [17] was 26.8 µM (inactive); in test [8] it was 44.5 µM (inactive); in test [9], 35.2 µM (inactive); in test [10], 34.5 µM (inactive); in test [11] it was 34.4 µM (inactive); in test [18] it was 32.4 µM (inactive). For the same compound, the GI50 in test [12] is 25.4 µM (inactive); in test [13], 26.8 µM (inactive); in [14], 15.3 µM; in test [19], 34.8 µM (inactive); in [15] it was 52.6 µM (inactive).
In the case of `O=C1NC2(CCN(CCCC3(c4ccc(F)cc4)OCCO3)CC2)Oc2ccccc21`, the GI50 in test [1] was 86.7 µM (inactive); in test [2] it was > 100 µM (inactive); in test [4], > 100 µM (inactive); in test [5] it was 57.3 µM (inactive); in test [6], > 100 µM (inactive); in [7], > 100 µM (inactive). The GI50 in [8] was > 100 µM (inactive); in [9], > 100 µM (inactive); in test [10], > 100 µM (inactive); in test [11], > 100 µM (inactive); in test [18], 42.9 µM (inactive); in test [12], > 100 µM (inactive). Further, the GI50 in [13] is 69.5 µM (inactive); in test [14], 71.4 µM; in test [19], > 100 µM (inactive); in test [15], 43.1 µM (inactive).
